Values of other authors, collected in patent US20240350489A1, “LOU064 FOR TREATING MULTIPLE SCLEROSIS” (NOVARTIS AG, priority 2021, published 2024).
“Also recorded” adds a separate entry of the source. Like-named read-outs stand apart in the source and are kept apart here.

What was measured:
[1] = system: experimental autoimmune encephalomyelitis (EAE); details: cited from earlier work
[2] = cited from earlier work
[3] = cited from earlier work; remark: listed apart in the source

Structure (SMILES)	efficacy in EAE ([1]; 3 mg/kg)	efficacy in EAE ([1]; 10 mg/kg vs 3 mg/kg)	elevations of ALT, AST and lipase ([2]; 75 mg once daily and twice daily)	brain lesions and relapses ([2]; 75 mg once or twice per day vs placebo or dimethyl fumarate)	dose-limiting side effects ([3]; human, in vivo)	MS lesion development ([3]; mid-stage trials)	most frequent adverse events ([3]; mid-stage trials)
C=CC(=O)N1CCC(CNc2ncnc(N)c2-c2ccc(Oc3ccccc3)cc2)CC1 [evobrutinib]	effective	did not further improve the effect	dose-limiting liver enzyme elevations; also recorded: higher frequency of elevations	trend toward developing fewer brain lesions and experiencing fewer relapses	–	–	–
C=CC(=O)N1CCC[C@@H](n2c(=O)n(-c3ccc(Oc4ccccc4)cc3)c3c(N)nccc32)C1 [tolebrutinib]	–	–	–	–	dose-limiting diarrhea	reduction in MS lesion development	headaches and cold-like symptoms
